Marks after values point to notes of the source that are not given here.
Tested on: cancer-related neuropathic pain
Test: Open label dose escalation study of flupirtine, case studies JE and RM
Conditions: for SCORE WALKING / SCORE ENJOYMENT / SCORE TOTAL ACTIVITY / SCORE MOOD / SCORE RELATIONSHIPS / SCORE SLEEP / SCORE GENERAL ACTIVITY: pain interference 1-10; for SCORE WALKING: day 1 baseline 7; for SCORE ENJOYMENT / SCORE TOTAL ACTIVITY / AVERAGE PAIN LAST 24 HOURS: day 1 baseline 8; for SCORE NAUSEA / SCORE UN[…] GAIT: day 1 baseline 2; for SCORE POOR CONCENTRATION / WHO PERFORMANCE STATUS / SCORE SLEEP: day 1 baseline 3; for SCORE DROWSINESS / SCORE POOR APPETITE: day 1 baseline 4; for WORST PAIN SCORE LAST 24 HOURS: day 1 baseline 10; for neuropathic dwascriminant function score: >0 = neuropathic, day 1 baseline 2.448; for freezing pain score / score for increased pain due to touch / score for increased pain due to weather changes / squeezing pain score: day 1 baseline 0; for burning pain score: day 1 baseline 90; for electric pain score / for shooting pain score / numbness score / score for overly sensitive to touch / tingling pain score / unpleasant pain score: day 1 baseline 95; for overwhelming pain score: day 1 baseline 98; for SCORE GENERAL ACTIVITY: day 1 baseline 5
[1] = JE day 5, flupirtine 100 mg qid
[2] = JE day 5, flupirtine 100 mg qid, scale 1-4, day 1 baseline 1
[3] = JE day 5, flupirtine 100 mg qid, scale 1-4
[4] = JE day 5, flupirtine 100 mg qid, scale to 10, day 1 baseline 1
[5] = JE day 5, flupirtine 100 mg qid, scale to 10
[6] = JE day 6, flupirtine 100 mg qid
[7] = JE day 6, flupirtine 100 mg qid, day 1 baseline 1
[8] = JE day 6, flupirtine 100 mg qid, scale 1-4, day 1 baseline 1
[9] = JE day 6, flupirtine 100 mg qid, scale 1-4
[10] = JE day 6, flupirtine 100 mg qid, scale to 10, day 1 baseline 1
[11] = JE day 6, flupirtine 100 mg qid, scale to 10
[12] = JE day 7, flupirtine 100 mg qid
[13] = JE day 7, flupirtine 100 mg qid, day 1 baseline 1
[14] = JE day 7, flupirtine 100 mg qid, scale 1-4, day 1 baseline 1
[15] = JE day 7, flupirtine 100 mg qid, scale 1-4
[16] = JE day 7, flupirtine 100 mg qid, scale to 10, day 1 baseline 1
[17] = JE day 7, flupirtine 100 mg qid, scale to 10
[18] = JE day 8, flupirtine 100 mg qid
[19] = JE day 8, flupirtine 100 mg qid, day 1 baseline 1
[20] = JE day 8, flupirtine 100 mg qid, scale 1-4
[21] = JE day 8, flupirtine 100 mg qid, scale 1-4, day 1 baseline 1
[22] = JE, day after day 8 (discharge), flupirtine 100 mg QID with Oxycontin 40 mg/24 hrs, scale to 10

CCOC(=O)Nc1ccc(NCc2ccc(F)cc2)nc1N [flupirtine]
SCORE WALKING [1]: 1
SCORE ENJOYMENT [1]: 3
SCORE TOTAL ACTIVITY [1]: 1
SCORE CONSTIPATION [2]: 4
SCORE INDIGESTION [2]: 1
SCORE NAUSEA [3]: 1
SCORE UN[…] GAIT [3]: 4
SCORE POOR CONCENTRATION [3]: 4
SCORE DROWSINESS [3]: 4
SCORE POOR APPETITE [3]: 4
LEAST PAIN LAST 24 HRS [4]: 0
PAIN SCORE RIGHT NOW [4]: 0
AVERAGE PAIN LAST 24 HOURS [5]: 0
WORST PAIN SCORE LAST 24 HOURS [5]: 6
WHO PERFORMANCE STATUS (JE day 6, flupirtine 100 mg qid, 0=fully active, 4=completely disabled): 3
neuropathic dwascriminant function score [6]: −1.048
freezing pain score [6]: 0
score for increased pain due to touch [6]: 80
score for increased pain due to weather changes [6]: 0
squeezing pain score [6]: 0
burning pain score [6]: 0
electric pain score [6]: 0
for shooting pain score [6]: 0
numbness score [6]: 0
score for overly sensitive to touch [6]: 0
tingling pain score [6]: 0
unpleasant pain score [6]: 0
overwhelming pain score [6]: 40
SCORE MOOD [7]: 1
SCORE RELATIONSHIPS [7]: 1
SCORE SLEEP [6]: 1
SCORE GENERAL ACTIVITY [6]: 1
SCORE WALKING [6]: 1
SCORE ENJOYMENT [6]: 1
SCORE TOTAL ACTIVITY [6]: 1
SCORE CONSTIPATION [8]: 1
SCORE INDIGESTION [8]: 1
SCORE NAUSEA [9]: 1
SCORE UN[…] GAIT [9]: 3
SCORE POOR CONCENTRATION [9]: 2
SCORE DROWSINESS [9]: 3
SCORE POOR APPETITE [9]: 2
LEAST PAIN LAST 24 HRS [10]: 0
PAIN SCORE RIGHT NOW [10]: 8
AVERAGE PAIN LAST 24 HOURS [11]: 8
WORST PAIN SCORE LAST 24 HOURS [11]: 9
WHO PERFORMANCE STATUS (JE day 7, flupirtine 100 mg qid, 0=fully active, 4=completely disabled): 3
neuropathic dwascriminant function score [12]: −1.408
freezing pain score [12]: 0
score for increased pain due to touch [12]: 0
score for increased pain due to weather changes [12]: 0
squeezing pain score [12]: 0
burning pain score [12]: 0
electric pain score [12]: 0
for shooting pain score [12]: 0
numbness score [12]: 0
score for overly sensitive to touch [12]: 0
tingling pain score [12]: 0
unpleasant pain score [12]: 0
overwhelming pain score [12]: 0
SCORE MOOD [13]: 1
SCORE RELATIONSHIPS [13]: 1
SCORE SLEEP [12]: 1
SCORE GENERAL ACTIVITY [12]: 1
SCORE WALKING [12]: 1
SCORE ENJOYMENT [12]: 1
SCORE TOTAL ACTIVITY [12]: 1
SCORE CONSTIPATION [14]: 1
SCORE INDIGESTION [14]: 1
SCORE NAUSEA [15]: 1
SCORE UN[…] GAIT [15]: 2
SCORE POOR CONCENTRATION [15]: 1
SCORE DROWSINESS [15]: 3
SCORE POOR APPETITE [15]: 3
LEAST PAIN LAST 24 HRS [16]: 0
PAIN SCORE RIGHT NOW [16]: 0
AVERAGE PAIN LAST 24 HOURS [17]: 0
WORST PAIN SCORE LAST 24 HOURS [17]: 4
WHO PERFORMANCE STATUS (JE day 8, flupirtine 100 mg qid, 0=fully active, 4=completely disabled): 3
freezing pain score [18]: 0
score for increased pain due to touch [18]: 0
score for increased pain due to weather changes [18]: 0
squeezing pain score [18]: 0
burning pain score [18]: 0
electric pain score [18]: 0
for shooting pain score [18]: 0
numbness score [18]: 90
score for overly sensitive to touch [18]: 0
tingling pain score [18]: 0
unpleasant pain score [18]: 95
overwhelming pain score [18]: 95
SCORE MOOD [19]: 8
SCORE RELATIONSHIPS [19]: 1
SCORE SLEEP [18]: 10
SCORE GENERAL ACTIVITY [18]: 1*
SCORE WALKING [18]: 1*
SCORE ENJOYMENT [18]: 8
SCORE TOTAL ACTIVITY [18]: 1*
other symptoms hallucinations [20]: 1-
SCORE CONSTIPATION [21]: 1*
SCORE INDIGESTION [21]: 1
other symptom twitch [21]: 1-
SCORE NAUSEA [20]: 1*
SCORE POOR CONCENTRATION [20]: 1*
SCORE DROWSINESS [20]: 1*
SCORE POOR APPETITE [20]: 1*
PAIN SCORE RIGHT NOW (JE day 8, flupirtine 100 mg qid, scale to 10, day 1 baseline 1): 9
AVERAGE PAIN LAST 24 HOURS (JE day 8, flupirtine 100 mg qid, scale to 10): 7
WHO performance status score (JE, day after day 8 (discharge), flupirtine 100 mg QID with Oxycontin 40 mg/24 hrs, 0=fully active, 4=completely disabled): 2
average pain score for the previous 24 hours [22]: 0
least pain [22]: 0
worst pain [22]: 0
WHO PERFORMANCE STATUS (RM day 2, flupirtine 100 mg qid, 0=fully active, 4=completely disabled): 3

Source: patent US8268821B2, “Methods and compositions” (priority 2003, dated 2012)
